Experimental data taken from PMC7155212 (Journal of Enzyme Inhibition and Medicinal Chemistry, 2020).
Like-named read-outs stand apart in the source and are kept apart here.

Experiments:
AChE from electric eel = AChE from electric eel (Electrophorus electricus, UniProt O42275); experiment: biochemical; format: biochemical; settings: Ellman method, mean ± SD (n = 3)
Procedure: (§1) The anticholinesterase activity of the 3-arylbenzofuranone compounds was determined by the method of Ellman et al.[16] with slight modifications. […] Acetylthiocholine iodide and butyrylthiocholine iodide were used as substrates respectively. 5,5′-Dithiobis(2-nitrobenzoic acid) (DTNB) was used as the chromophoric reagent. To a 96-well plate, 120 µL of phosphate buffer solution (0.1 M, pH = 8.0, PBS), 20 µL of DTNB (3.3 mM in 0.1 M PBS, pH = 8.0) were added sequentially, 20 µL AChE solution (0.2 U/mL in 0.1 M PBS, pH = 8.0), 20 µL of different concentrations of the sample solution, shaken well, and incubated at 37 °C for 5 min. Then, 20 µL of substrate (5 mM in 0.1 M PBS, pH = 8.0) were added, shaken well, and incubated at 37 °C for 20 min. […] BChE inhibitory activity was assessed similarly using butyrylthiocholine iodide as the substrate. The sample solution was set to five concentration gradients and the experiment was repeated three times. […] Cholinesterase inhibitory effect (%)=[A0−(A1−A2)]/A0×100% where A0 is the absorbance of blank group; A1 is the absorbance of sample group; A2 is the absorbance of sample blank group.

BChE from equine serum = BChE from equine serum (Equus caballus, UniProt P81908); experiment: biochemical; format: biochemical
Chain of BChE from equine serum (P81908 whole entry): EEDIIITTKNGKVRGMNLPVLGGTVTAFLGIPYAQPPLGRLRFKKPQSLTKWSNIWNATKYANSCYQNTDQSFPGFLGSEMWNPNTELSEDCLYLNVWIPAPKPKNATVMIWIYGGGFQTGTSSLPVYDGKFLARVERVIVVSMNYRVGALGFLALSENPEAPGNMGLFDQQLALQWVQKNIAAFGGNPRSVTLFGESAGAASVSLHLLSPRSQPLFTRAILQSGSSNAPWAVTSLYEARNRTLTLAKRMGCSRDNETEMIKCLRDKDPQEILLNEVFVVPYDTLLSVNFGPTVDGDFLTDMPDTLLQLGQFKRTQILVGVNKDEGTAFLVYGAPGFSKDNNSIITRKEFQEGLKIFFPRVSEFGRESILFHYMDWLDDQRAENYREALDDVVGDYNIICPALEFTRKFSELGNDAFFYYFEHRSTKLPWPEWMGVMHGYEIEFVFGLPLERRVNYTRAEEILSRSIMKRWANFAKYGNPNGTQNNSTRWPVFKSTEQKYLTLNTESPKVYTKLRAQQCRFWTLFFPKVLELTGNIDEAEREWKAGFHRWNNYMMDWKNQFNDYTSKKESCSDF
Procedure: as §1

MAO-B = biological target: T1, MAO-B (Rattus norvegicus, UniProt P19643); experiment: In vitro MAO inhibitory activity (Holt method, crude enzyme from rat liver); format: biochemical, Wistar rat
T1 construct: The crude enzyme was extracted from the liver of 200–250 g of Wistar rats; from tissue; host or cells: liver of Wistar rats (crude enzyme)
T1 sequence (P19643 1-520): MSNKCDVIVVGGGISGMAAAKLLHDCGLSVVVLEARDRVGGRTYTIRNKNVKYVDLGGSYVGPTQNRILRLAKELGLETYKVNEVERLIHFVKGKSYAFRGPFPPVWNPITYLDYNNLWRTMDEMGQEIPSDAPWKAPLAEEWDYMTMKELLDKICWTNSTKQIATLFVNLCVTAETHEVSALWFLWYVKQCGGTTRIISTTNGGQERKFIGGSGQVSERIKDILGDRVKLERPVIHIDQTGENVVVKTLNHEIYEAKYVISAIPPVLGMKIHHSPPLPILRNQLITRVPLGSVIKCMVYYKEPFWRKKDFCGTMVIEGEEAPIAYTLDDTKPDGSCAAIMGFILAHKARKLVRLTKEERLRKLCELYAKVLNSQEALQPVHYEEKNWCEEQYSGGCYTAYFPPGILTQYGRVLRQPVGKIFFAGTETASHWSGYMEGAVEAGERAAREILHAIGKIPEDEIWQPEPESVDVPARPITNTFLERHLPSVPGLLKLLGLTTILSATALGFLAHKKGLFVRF
Procedure: The MAO inhibitory activity of the 3-arylbenzofuranone compounds was determined by the method of Holt et al.[17] with slight modifications. The crude enzyme was extracted from the liver of 200–250 g of Wistar rats according to literature methods[18]^,[19]. The crude enzyme protein content was determined by the Bradford method using a Bradford Protein Assay Kit (Beyotime). The assay was performed in 0.2 M potassium phosphate buffer pH 7.6 on 96-well plates in 240 μl total volume. The chromogenic solution containing 1 mM vanillic acid, 0.5 mM 4-aminoantipyrine, and 4 U/ml horseradish peroxidase in 0.2 M potassium phosphate buffer pH 7.6 was mixed anew for each measurement. 40 μL of enzyme solution and 40 μL of sample solution were added to a 96-well plate. The solution was then incubated at 37 °C for 20 min. 120 μL of the 4-(trifluoromethyl) benzylamine solution and 40 μL of the chromogenic solution were added subsequently and incubated at 37 °C for 90 min. The absorbance was measured at 490 nm using a microplate reader, and the inhibition rate of MAO and the IC50 value of each sample were calculated according to the formula. The control group replaced the sample solution with PBS (0.2 M, pH = 7.6), the positive control replaced the sample with the positive drug, and the blank group replaced the substrate with PBS, and each group was measured three times in parallel to average. Monoamine oxidase inhibitory effect (%) = [(AC – AB) – (AS – ASB )]/(AC – AB)×100% where AC is the absorbance of control group; AB is the absorbance of blank group; AS is the absorbance of sample group; ASB is the absorbance of sample blank group.

[1] = In vitro antioxidant activity (DPPH radical scavenging); settings: DPPH free radical scavenging, 30 min at 37 °C, mean ± SD (n = 3)
Procedure: The assay provides an assessment of the antioxidant activity due to free radical scavenging by measuring hydrogen atom (or one electron) donating activity. DPPH is a purple stable free radical that is reduced to a yellow-coloured diphenylpicryl hydrazine by an antioxidant. The spectrophotometric assay was carried out as described by the literature method with a slight modification. 100 μL of a sample solution was added to 100 μL of DPPH solution. Following 30 min of incubation at 37 °C and protection from light, the absorbance at 517 nm was determined using a microplate reader. Each group was measured three times in parallel to average. IC50 values were calculated. The percentage of DPPH radical scavenging rate of the target compound is calculated as follows: DPPH free radical scavenging effect (%)=[A0 – (A1−A2)]/A0×100% where A0 is the absorbance of blank group; A1 is the absorbance of sample group; A2 is the absorbance of sample blank group.

[2] = read-out: IC50 value AChE inhibitory activity
[3] = equine serum BChE, Ellman method, mean ± SD (n = 3), read-out: IC50 value BuChE inhibitory activity
[4] = rat liver crude enzyme, 4-(trifluoromethyl)benzylamine substrate, mean ± SD (n = 3), read-out: IC50 value MAO-B inhibitory activity

Chain of AChE from electric eel (O42275 24-633): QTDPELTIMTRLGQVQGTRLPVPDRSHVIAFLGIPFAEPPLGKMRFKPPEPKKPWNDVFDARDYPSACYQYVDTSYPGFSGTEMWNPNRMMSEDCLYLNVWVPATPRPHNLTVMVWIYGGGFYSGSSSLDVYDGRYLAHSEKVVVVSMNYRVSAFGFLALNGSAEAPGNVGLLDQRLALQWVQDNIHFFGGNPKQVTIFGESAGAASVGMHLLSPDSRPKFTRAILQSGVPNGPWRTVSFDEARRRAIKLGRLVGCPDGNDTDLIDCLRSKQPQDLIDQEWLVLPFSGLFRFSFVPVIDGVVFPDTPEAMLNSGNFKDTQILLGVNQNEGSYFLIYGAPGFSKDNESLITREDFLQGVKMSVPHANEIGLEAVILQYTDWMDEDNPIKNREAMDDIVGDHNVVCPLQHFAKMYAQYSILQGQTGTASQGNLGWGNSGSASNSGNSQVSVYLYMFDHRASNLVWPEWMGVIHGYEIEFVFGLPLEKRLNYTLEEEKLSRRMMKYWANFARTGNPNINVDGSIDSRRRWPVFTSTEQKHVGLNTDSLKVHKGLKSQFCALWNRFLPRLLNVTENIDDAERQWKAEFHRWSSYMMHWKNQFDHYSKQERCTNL

SMILES: COc1cc(C2C(=O)Oc3cc(O)ccc32)cc(OC)c1OC (stereo not drawn) [Compound 11, 6-Hydroxy-3–(3′,4′,5′-trimethoxyphenyl)-benzofuranone]
- IC50 (AChE from electric eel; [2]): 48.24 ± 0.34 µM
- IC50 (BChE from equine serum; [3]): > 200 µM
- IC50 (MAO-B; [4]): 38.6 ± 0.42 µM
- IC50 [1]: 11.2 ± 0.24 µM

SMILES: COc1ccc(C2C(=O)Oc3c2ccc(OC)c3O)cc1OC (stereo not drawn) [Compound 12, 6-Methoxy-7-hydroxy-3–(3′,4′-dimethoxyphenyl)-benzofuranone]
- IC50 (AChE from electric eel; [2]): 5.25 ± 0.44 µM
- IC50 (BChE from equine serum; [3]): 180.9 ± 1.48 µM
- IC50 (MAO-B; [4]): 22.9 ± 0.73 µM
- IC50 [1]: 1.6 ± 0.1 µM

SMILES: COc1cc(C2C(=O)Oc3ccc(O)cc32)cc(OC)c1OC (stereo not drawn) [Compound 14, 5-Hydroxy-3–(3′,4′,5′-trimethoxyphenyl)-benzofuranone]
- IC50 (AChE from electric eel; [2]): 3.37 ± 0.17 µM
- IC50 (BChE from equine serum; [3]): 128 ± 4.65 µM
- IC50 (MAO-B; [4]): 69.7 ± 1.26 µM
- IC50 [1]: 5.11 ± 0.13 µM

SMILES: COc1ccc2c(c1)C(c1cc(OC)c(OC)c(OC)c1)C(=O)O2 (stereo not drawn) [Compound 15, 5-Methoxy-3–(3′,4′,5′-trimethoxyphenyl)-benzofuranone]
- IC50 (AChE from electric eel; [2]): 2.54 ± 0.19 µM
- IC50 (BChE from equine serum; [3]): > 200 µM
- IC50 (MAO-B; [4]): 215 ± 2.27 µM
- IC50 [1]: 32.6 ± 0.42 µM

SMILES: COc1ccc2c(c1)OC(=O)C2c1cc(OC)c(OC)c(OC)c1 (stereo not drawn) [Compound 16, 6-Methoxy-3–(3′,4′,5′-trimethoxyphenyl)-benzofuranone]
- IC50 (AChE from electric eel; [2]): 4.07 ± 0.19 µM
- IC50 (BChE from equine serum; [3]): > 200 µM
- IC50 (MAO-B; [4]): > 500 µM
- IC50 [1]: 18 ± 0.48 µM

SMILES: COc1ccc2c(c1)C(c1ccc(OC)c(OC)c1OC)C(=O)O2 (stereo not drawn) [Compound 17, 5-Methoxy-3–(2′,3′,4′-trimethoxyphenyl)-benzofuranone]
- IC50 (AChE from electric eel; [2]): 42.3 ± 4.01 µM
- IC50 (BChE from equine serum; [3]): > 200 µM
- IC50 (MAO-B; [4]): 82.7 ± 1.31 µM
- IC50 [1]: 29.2 ± 0.31 µM

SMILES: COc1ccc2c(c1)OC(=O)C2c1ccc(OC)c(OC)c1OC (stereo not drawn) [Compound 18, 6-Methoxy-3–(2′,3′,4′-trimethoxyphenyl)-benzofuranone]
- IC50 (AChE from electric eel; [2]): 124 ± 2.17 µM
- IC50 (BChE from equine serum; [3]): > 200 µM
- IC50 (MAO-B; [4]): 180.3 ± 1.32 µM
- IC50 [1]: 64.5 ± 1.29 µM

SMILES: COc1ccc(C2C(=O)Oc3cc(OC)c(OC)cc32)cc1OC (stereo not drawn) [Compound 19, 5,6-Dimethoxy-3–(3′,4′-dimethoxyphenyl)-benzofuranone]
- IC50 (AChE from electric eel; IC50 value AChE inhibitory activity): 36.5 ± 0.51 µM
- IC50 (BChE from equine serum): > 200 µM
- IC50 (MAO-B): 146 ± 1.83 µM
- IC50 [1]: 12.6 ± 0.14 µM

SMILES: COc1cc(C2C(=O)Oc3c2ccc(O)c3O)cc(OC)c1OC (stereo not drawn) [Compound 20, 6,7-Dihydroxy−3–(3′,4′,5′-trimethoxyphenyl)-benzofuranone]
- IC50 (AChE from electric eel; [2]): 0.089 ± 0.01 µM
- IC50 (BChE from equine serum; [3]): > 200 µM
- IC50 (MAO-B; [4]): 149 ± 3.39 µM
- IC50 [1]: 42.6 ± 2.58 µM

SMILES: COc1cc2c(cc1O)C(c1cc(OC)c(OC)c(OC)c1)C(=O)O2 (stereo not drawn) [Compound 21, 5-Hydroxy-6-methoxy-3–(3′,4′,5′-trimethoxyphenyl)-benzofuranone]
- IC50 (AChE from electric eel; [2]): 2.38 ± 0.2 µM
- IC50 (BChE from equine serum; [3]): 146 ± 3.05 µM
- IC50 (MAO-B; [4]): > 500 µM
- IC50 [1]: 5.35 ± 0.33 µM

SMILES: COc1ccc2c(c1O)OC(=O)C2c1cc(OC)c(OC)c(OC)c1 (stereo not drawn) [Compound 22, 6-Methoxy-7-hydroxy-3–(3′,4′,5′-trimethoxyphenyl)-benzofuranone]
- IC50 (AChE from electric eel; [2]): 2.03 ± 0.09 µM
- IC50 (BChE from equine serum; [3]): > 200 µM
- IC50 (MAO-B; [4]): 30.3 ± 0.65 µM
- IC50 [1]: 6.44 ± 0.12 µM

SMILES: COc1cc2c(cc1O)C(c1cc(OC)c(OC)c(OC)c1)C(=O)O2 (stereo not drawn) [Compound 23, 5-Hydroxy-6-methoxy-3–(3′,4′,5′-trimethoxyphenyl)-benzofuranone]
- IC50 (AChE from electric eel; [2]): 26 ± 1.26 µM
- IC50 (BChE from equine serum; [3]): > 200 µM
- IC50 (MAO-B; [4]): 43.9 ± 1.26 µM
- IC50 [1]: 11.9 ± 0.16 µM
